In ChEMBL document CHEMBL1152708, “Deconstructing estradiol: removal of B-ring generates compounds which are potent and subtype-selective estrogen receptor agonists” (Bioorg Med Chem Lett, 2009):

Assays:
[1] = molecular target: Estrogen receptor beta (Homo sapiens) (UniProt Q92731); experiment: Displacement of [3H]estradiol form ERbeta assessed as relative binding affinity relative to estradiol
[2] = Selectivity ratio of RBA for ERbeta to RBA for ERalpha
[3] = molecular target: T1, Estrogen receptor (Homo sapiens) (UniProt P03372); experiment: Displacement of [3H]estradiol form ERalpha assessed as relative binding affinity relative to estradiol
T1 sequence (whole entry): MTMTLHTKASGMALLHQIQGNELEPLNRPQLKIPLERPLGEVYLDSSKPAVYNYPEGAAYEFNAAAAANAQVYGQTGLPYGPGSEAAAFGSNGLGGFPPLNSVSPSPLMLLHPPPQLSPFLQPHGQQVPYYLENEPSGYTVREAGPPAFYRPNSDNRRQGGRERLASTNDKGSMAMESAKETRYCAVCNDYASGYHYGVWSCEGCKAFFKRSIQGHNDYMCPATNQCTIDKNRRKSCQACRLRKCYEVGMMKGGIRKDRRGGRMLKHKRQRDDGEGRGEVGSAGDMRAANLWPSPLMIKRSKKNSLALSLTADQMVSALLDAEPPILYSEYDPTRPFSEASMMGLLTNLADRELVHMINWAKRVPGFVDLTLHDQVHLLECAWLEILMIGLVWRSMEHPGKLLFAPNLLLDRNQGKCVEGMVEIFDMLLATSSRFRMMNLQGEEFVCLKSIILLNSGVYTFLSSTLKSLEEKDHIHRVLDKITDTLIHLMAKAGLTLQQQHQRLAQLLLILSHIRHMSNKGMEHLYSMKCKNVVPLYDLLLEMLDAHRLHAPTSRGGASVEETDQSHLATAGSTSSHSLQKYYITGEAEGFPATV

[4] = molecular target: Estrogen receptor beta (Homo sapiens) (UniProt Q92731); experiment: Activity at ERbeta expressed in CHO cells co-transfected with ERE plasmid assessed as relative transcriptional activation at 10 nM by luciferase reporter assay relative to estradiol; type: cell-based
[5] = molecular target: T1, Estrogen receptor (Homo sapiens); experiment: Activity at ERalpha expressed in CHO cells co-transfected with ERE plasmid assessed as relative transcriptional activation at 10 nM by luciferase reporter assay relative to estradiol; type: cell-based

Estrogen receptor beta (Homo sapiens), sequence (Q92731 whole entry): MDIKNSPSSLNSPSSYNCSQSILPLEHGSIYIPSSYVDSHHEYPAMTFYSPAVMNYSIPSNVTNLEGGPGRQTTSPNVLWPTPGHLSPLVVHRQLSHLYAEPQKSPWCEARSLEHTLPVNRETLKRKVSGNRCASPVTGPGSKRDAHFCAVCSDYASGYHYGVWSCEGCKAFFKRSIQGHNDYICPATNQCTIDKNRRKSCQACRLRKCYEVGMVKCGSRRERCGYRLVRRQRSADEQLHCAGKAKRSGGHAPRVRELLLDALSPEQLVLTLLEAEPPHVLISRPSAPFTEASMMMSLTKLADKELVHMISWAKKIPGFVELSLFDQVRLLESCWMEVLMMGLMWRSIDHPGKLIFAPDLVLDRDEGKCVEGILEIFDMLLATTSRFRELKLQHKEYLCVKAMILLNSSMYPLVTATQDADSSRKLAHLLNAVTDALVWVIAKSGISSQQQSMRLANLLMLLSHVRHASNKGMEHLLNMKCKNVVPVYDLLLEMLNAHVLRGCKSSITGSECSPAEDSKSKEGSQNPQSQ

| RBA [1] [%] | Selectivity ratio [2] | RBA [3] [%] | Activity [4] [%] | Activity [5] [%] | Structure (SMILES) |
| --- | --- | --- | --- | --- | --- |
| 43 | 9.3 | 4.6 |  |  | C[C@]12CC[C@H](c3ccc(O)c(F)c3F)C[C@@H]1CC[C@@H]2O |
|  | 226 |  |  |  | C=Cc1cc(O)cc2nc(-c3ccc(O)c(F)c3)oc12 |
| 33.6 | 12 | 2.8 | 149 | 9.7 | Cc1cc(O)ccc1[C@H]1CC[C@@]2(C)[C@@H](CC[C@@H]2O)C1 |
| 0.28 | 7 | 0.04 |  |  | C[C@]12CC[C@H](c3cc(F)c(O)c(F)c3)C[C@@H]1CC[C@@H]2O |
|  | 3.4 | 49 |  |  | C[C@]12CC[C@H](c3ccc(O)cc3Cl)C[C@@H]1CC[C@@H]2O |
|  | 41 |  |  |  | O=c1c(-c2ccc(O)cc2)coc2cc(O)cc(O)c12 |
| 0.59 | 9.8 | 0.06 |  |  | C[C@]12CC[C@@H](c3ccc(O)cc3)C[C@@H]1CC[C@@H]2O |

The remaining lines, values behind:

| Structure (SMILES) | RBA [1] [%] | Selectivity ratio [2] | RBA [3] [%] | Activity [4] [%] | Activity [5] [%] |
| --- | --- | --- | --- | --- | --- |
| C[C@]12CC[C@H](c3cc(F)c(O)c(F)c3F)C[C@@H]1CC[C@@H]2O | 1.73 | 9.1 | 0.19 |  |  |
| C[C@]12CC[C@H](c3ccc(O)c(F)c3)C[C@@H]1CC[C@@H]2O | 8.7 | 8.7 | 1 | 14 | 8.3 |
| C[C@]12CC[C@H](c3ccc(O)cc3)C[C@@H]1CC[C@@H]2O | 21.5 | 14 | 1.5 | 164 | 4.3 |
| C[C@]12CC[C@H](c3ccc(O)cc3F)C[C@@H]1CC[C@@H]2O | 135 | 5 | 27 | 146 | 44 |
| C[C@]12CC[C@H](c3cc(F)c(O)cc3F)C[C@@H]1CC[C@@H]2O | 3.3 | 8.7 | 0.38 |  |  |
